Laboratory results: patent US20230390226A1 (PaxMedica, Inc., priority 2021, published 2023)

Key:
Assay type in all cases: in vivo, mouse
[1] = test system: B6.129P2-Fmr1tm1Cgr/J transgenic (TG) mice; assay: Locomotor activity test (SmartCage)
Procedure: (§1) • 1. N=6 mice per group. • 2. All behavioral testing included a group of untreated wild type controls. • 3. Dosing for the various groups were as follows: • a. […] Group 2: IP saline, […], administered weekly to animals beginning at 9 weeks of age and continuing for four weeks (i.e. given at Age Weeks 9, 10, 11 and 12). • c. […] Behavioral tests for all groups (Groups 1-5) began the following day after the last day of IN dosing (Weeks 13-14 of age). • 5. Blood samples (for PK testing) were collected from all mice at the end of Week 12 of age, just prior to starting the behavioral tests in Week 13 of age. • 6. Brain tissue (for biochemistry testing) was harvested from all mice upon sacrifice at the conclusion of all behavioral testing at the end of Week 13-14 of age.
Male B6.129P2-Fmr1tm1Cgr/J TG (TG) mice were purchased from Jackson Laboratories, Bar Harbor, Maine. These mice were of approximately 8(+1) weeks of age. […] Body weights of all mice were recorded for health monitoring purposes.
Dosing was carried out over the course of 28 days as instructed by the study Sponsor. […] Day 1 to Day 2: Locomotor Activity recording is assessed using the SmartCage™ • 2. […]
Each mouse was placed in a clean plastic, transparent home cage within the SmartCage™. […] Active Time, Travel Distance, and Rearing Activity were assessed for each mouse. Data analyzed based on treatment group.

[2] = test system: B6.129P2-Fmr1tm1Cgr/J transgenic (TG) mice; assay: Step through passive avoidance test, learning and memory
Procedure: as §1, with “type (WT)” for “type”
(§2) Male B6.129P2-Fmr1tm1Cgr/J TG (TG) mice were purchased from Jackson Laboratories, Bar Harbor, Maine. These mice were of approximately 8 (±1) weeks of age. Mice were maintained in group cages (6 mice per cage based on treatment group) in a controlled environment (temperature: 21.5±4.5° C./relative humidity: 35-55%) under a standard 12 hour light/12 hour dark lighting cycle (lights on at 06:00). Mice accommodated to the research facility for the remainder of the week. Dosing began on the following Monday. Body weights of all mice were recorded for health monitoring purposes.
Dosing was carried out over the course of 28 days as instructed by the study Sponsor. The fifth and final behavioral test, the Step Through (ST) Passive Avoidance Test, was performed over two days (days 38 and 39) with the first day as a Training Day and the second day as a Test Day. Passive avoidance is fear-motivated tests classically used to assess short-term or long-term memory on rodents. […] The mouse is then allowed to freely explore the SmartCage™ and enter the dark box “Dark Zone” at its own discretion; dark box entry latency is automatically recorded. • 4. […] The mouse may freely explore the SmartCage™ for 5 minutes, and avoidance of the Dark Box due to contextual-fear association is assessed. • 8. […]

[3] = test system: B6.129P2-Fmr1tm1Cgr/J transgenic (TG) mice; assay: Light/dark preference test (LDT), anxiety-like behavior
Procedure: • 1. N=6 mice per group. • 2. All behavioral testing included a group of untreated wild type controls. • 3. Dosing for the various groups were as follows: • a. […] Group 2: IP saline, […], administered weekly to animals beginning at 9 weeks of age and continuing for four weeks (i.e. given at Age Weeks 9, 10, 11 and 12). • c. […] Behavioral tests for all groups (Groups 1-5) began the following day after the last day of IN dosing (Weeks 13-14 of age). • 5. Blood samples (PK testing) were collected from all mice at the end of 12 Weeks of age, just prior to starting the behavioral tests in Week 13. • 6. Brain tissue (for biochemistry testing) was harvested from all mice upon sacrifice at the conclusion of all behavioral testing at the end of 13-14 Weeks of age.
as §2, with “TG” for “TG (TG)”, “8(+1)” for “8 (±1)”, “12-hour light/12-hour” for “12 hour light/12 hour”
Dosing was carried out over the course of 28 days as instructed by the study sponsor. • 1. Prior to the beginning of the light/dark test, a dark box (red transparent enclosure with an opening for the mouse to enter) is placed in the SmartCage™ • 2. An individual mouse is placed in the open/non-dark box side (“Light Zone”), with its head facing away from the dark box. • 3. The mouse is then allowed to freely explore the SmartCage™ and enter the dark box “Dark Zone” at its own discretion over a 10-minute span. • 4. Anxiety-like behavior is assessed based on the SmartCage™ monitoring of time spent in the Light Zone, the number of Light Zone entries, and % Time Spent in the Light Zone. • 5. […]

How did the active time ([1]; IN daily, weekly and every 2 days, ~24 h recording) turn out when `Cc1ccc(C(=O)Nc2ccc(S(=O)(=O)O)c3cc(S(=O)(=O)O)cc(S(=O)(=O)O)c23)cc1NC(=O)c1cccc(NC(=O)Nc2cccc(C(=O)Nc3cc(C(=O)Nc4ccc(S(=O)(=O)O)c5cc(S(=O)(=O)O)cc(S(=O)(=O)O)c45)ccc3C)c2)c1` [suramin, 1,3,5-Naphthalenetrisulfonic acid, 8,8′-[carbonylbis[imino-3,1-phenylenecarbonylimino(4-methyl-3,1-phenylene)carbonylimino]]bis-] was run?
The active time was “greater activity compared to the WT control group”.

What about the rearing count ([1]; IN every 2 days) of the same compound?
Its rearing count is “comparable to the WT control group”.

And the “dark zone entry latency” value ([2]; Test Day, IP 20 mg/kg weekly)?
Its value is “shortest latency”.

And the “percentage of time spent in the light zone” value ([2]; test day, IN groups)?
Its value is “greater than 70%”.

What about the “total light zone time” value ([2]; test day, IP 20 mg/kg weekly) of the same compound?
The value was “lower total time”.

What about the “percentage of time spent in the light zone” value ([3]; IN weekly for 4 weeks) of the same compound?
The value was “higher percentage of time spent in the Light Zone”.

What about the “total time spent in the light zone” value ([3]; IN weekly for 4 weeks, 10-minute test) of the same compound?
Its value is ~6.5 min.

What about the “dark zone entry latency” value ([3]; all IN groups (daily, every other day, weekly)) of the same compound?
Its value is 60 to 65 s.
